The values that follow come from patent publication US20160108406A1, “METHOD OF REGULATING CFTR EXPRESSION AND PROCESSING” (UNIVERSITY OF IOWA RESEARCH FOUNDATION, priority 2014, published 2016).

Data set [1] deals with T1, ΔF508-CFTR (Homo sapiens, UniProt P13569, DEL508-508).
T1 construct: Here we studied native CFTR, SYVN1 and AMFR gene products in a relevant CF airway epithelial cell line; endogenous in cells; host or cells: CFBE41o- cells (also as polarized ALI cultures)
As to the kind of experiment: CFTR ubiquitination measurement (anti-HA IP, anti-ubiquitin blot). Type of data set: cell-based. The note with it: treatment alone; HeLa-ΔF508-CFTR-HA cells; 72 hrs; MG-132 10 μM last hour; relative to siScr. The procedure:
Cells were treated with 10 μM MG-132 in the last 1-hour of incubation, and then lysed in lysis buffer (1% Triton, 25 mM Tris pH 7.4, 150 mM NaCl, protease inhibitors (cOmplete™, mini, EDTA-free, Roche), 5 mM N-ethylmaleimide (NEM) and 20 μM MG-132) for 30 min at 4° C. The lysates were centrifuged at 14,000 rpm for 20 min at 4° C., and the supernatant quantified by BCA Protein Assay kit (Pierce). CFTR was precipitated with the anti-HA antibody. The immunoprecipitates were analyzed by immunoblotting with anti-Ub and anti-HA antibodies. CFTR ubiquitination level with molecular masses >180 kDa was measured by densitometry and normalized for the CFTR level in the precipitate.
Immunoprecipitation (IP) experiments were performed in HeLa cells stably expressing ΔF508-CFTR-HA. To IP ΔF508-CFTR, cells were lysed (as described above), and supernatant (20-50 μg of protein) was incubated with either anti-HA (to IP CFTR) or anti-AMFR for 1 h at 4° C., followed by incubation with protein G-agarose (Invitrogen) for 1 h at 4° C. Immunoprecipitates were washed 4 times with lysis buffer and eluted in 6× sample-SDS buffer. Samples were analyzed by immunoblotting as described above.

Data set [2] deals with ΔF508-CFTR. Particulars: primary CF airway epithelia; reference 18; cited from earlier work.

T1 sequence (P13569 with tags, fused parts or gaps DEL508-508): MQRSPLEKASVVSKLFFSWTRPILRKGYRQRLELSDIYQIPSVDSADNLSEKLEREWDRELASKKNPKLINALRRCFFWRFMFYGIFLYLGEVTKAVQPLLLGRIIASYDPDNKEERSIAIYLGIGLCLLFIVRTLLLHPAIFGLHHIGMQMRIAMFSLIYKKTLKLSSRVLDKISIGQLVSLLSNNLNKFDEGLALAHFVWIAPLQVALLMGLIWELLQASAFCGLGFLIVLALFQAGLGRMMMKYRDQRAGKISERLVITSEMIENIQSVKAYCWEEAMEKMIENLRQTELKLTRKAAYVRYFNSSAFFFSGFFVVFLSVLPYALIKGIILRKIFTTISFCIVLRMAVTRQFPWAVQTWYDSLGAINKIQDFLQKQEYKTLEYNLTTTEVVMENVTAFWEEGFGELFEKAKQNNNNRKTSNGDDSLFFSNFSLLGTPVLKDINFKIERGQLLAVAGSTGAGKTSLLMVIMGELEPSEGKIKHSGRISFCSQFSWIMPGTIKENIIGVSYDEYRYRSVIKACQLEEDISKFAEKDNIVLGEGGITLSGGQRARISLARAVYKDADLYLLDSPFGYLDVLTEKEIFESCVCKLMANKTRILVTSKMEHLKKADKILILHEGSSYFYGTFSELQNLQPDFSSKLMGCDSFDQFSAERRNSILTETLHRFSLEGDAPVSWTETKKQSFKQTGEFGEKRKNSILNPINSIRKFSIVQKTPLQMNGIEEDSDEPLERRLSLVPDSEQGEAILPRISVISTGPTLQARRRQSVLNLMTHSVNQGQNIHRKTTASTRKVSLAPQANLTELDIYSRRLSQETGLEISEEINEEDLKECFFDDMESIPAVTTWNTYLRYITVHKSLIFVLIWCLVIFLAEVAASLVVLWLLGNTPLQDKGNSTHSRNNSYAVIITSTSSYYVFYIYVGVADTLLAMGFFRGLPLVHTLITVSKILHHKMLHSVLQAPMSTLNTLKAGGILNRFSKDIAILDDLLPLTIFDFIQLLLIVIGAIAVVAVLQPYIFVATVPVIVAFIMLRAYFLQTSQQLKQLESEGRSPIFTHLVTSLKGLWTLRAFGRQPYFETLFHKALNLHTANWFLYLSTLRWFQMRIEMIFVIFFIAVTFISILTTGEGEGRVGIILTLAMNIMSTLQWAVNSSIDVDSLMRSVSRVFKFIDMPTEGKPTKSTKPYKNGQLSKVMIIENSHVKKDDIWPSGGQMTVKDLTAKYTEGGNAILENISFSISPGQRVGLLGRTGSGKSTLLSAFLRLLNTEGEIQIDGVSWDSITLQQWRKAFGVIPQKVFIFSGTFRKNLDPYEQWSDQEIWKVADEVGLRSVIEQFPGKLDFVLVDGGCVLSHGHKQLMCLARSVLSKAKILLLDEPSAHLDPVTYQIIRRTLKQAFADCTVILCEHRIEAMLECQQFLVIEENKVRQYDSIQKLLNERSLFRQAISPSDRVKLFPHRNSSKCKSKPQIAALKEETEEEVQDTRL

Consider `O=C(Nc1ncc(C(c2ccccc2Cl)N2CCC(O)C2)s1)C1(c2ccc3c(c2)OCO3)CC1` (centres unmarked) [C18, 1-(benzo[d][1,3]dioxol-5-yl)-N-(5-((2-chlorophenyl)(3-hydroxypyrrolidin-1-yl)methyl)thiazol-2-yl)cyclopropanecarboxamide], for which the ΔF508-CFTR ubiquitination result on ΔF508-CFTR [1] was “little impact on ΔF508-CFTR ubiquitination levels”.

On to “miR-138 mimic: synthetic nucleic acid with miR-138-like activity, sense SEQ ID NO: 4, antisense SEQ ID NO: 5”, for which the “ΔF508-CFTR expression and Cl− transport” value with ΔF508-CFTR [2] is “concomitantly increased ΔF508-CFTR expression and Cl^− transport”.
